The assay has as its system Imperial Gala apples. The experiment in a line: Apple coloration in Imperial Gala variety, percent red pixel area after foliar spray. Type of assay: in vivo. The following applies: for Average % Red Pixel Area: foliar spray, 34 hours post spray; for Fold Change From control: vs 0.05% Regulaid control. Here is the method: 10 sets of unripened apples, Imperial Gala variety, harvested three weeks before the normal harvest date, were each foliar sprayed with either 1) 0.05% Regulaid® as a control, 2) 50 ppm prohydrojasmon, 3) 300 ppm prohydrojasmon, 4) 50 ppm ACC, 5) 300 ppm ACC or 6) a mixture of 50 ppm prohydrojasmon and 50 ppm ACC or 7) a mixture of 300 ppm prohydrojasmon and 300 ppm ACC. 34 hours post spray application percent red pixel area (shaded) was measured. Percent red pixel area is an indication of the coloration of the apple fruit.
To determine if the mixture provided unexpected results, the observed combined efficacy (“OCE”) was divided by the expected combined efficacy (“ECE”) wherein the ECE is calculated by the Abbott method: […]
wherein ECE is the expected combined efficacy and in which A and B are the fold change from control given by the single active ingredients. If the ratio between the OCE of the mixture and the ECE of the mixture is greater than 1, then greater than expected interactions are present in the mixture. (Gisi, Synergistic Interaction of Fungicides in Mixtures, The American Phytopathological Society, 86:11, 1273-1279,1996).

This note sets out measurements from patent publication US20240108002A1, “1-AMINO-1-CYCLOPROPANECARBOXYLIC ACID AND PROHYDROJASMON MIXTURES AND USES THEREOF” (Valent BioSciences LLC, priority 2022, published 2024).

On to `CCCCCC1C(=O)CCC1CC(=O)OCCC` (centres unmarked) [prohydrojasmon], for which, under “single active at 50 ppm”, the “Average % Red Pixel Area” value came to 15.84% and the “Fold Change From control” value was determined as 1.33. In addition, for the setting “single active at 300 ppm”, the “Average % Red Pixel Area” value is given as 21.03% and the “Fold Change From control” value is on record as 2.09.

For the compound `NC1(C(=O)O)CC1` [ACC, 1-amino-1-cyclopropanecarboxylic acid], where the note is “single active at 50 ppm”, the “Average % Red Pixel Area” value came to 7.02% and the “Fold Change From control” value stood at 0.03. For the same compound, under “single active at 300 ppm”, the “Average % Red Pixel Area” value is on record as 4.66% and the “Fold Change From control” value is on record as −0.31.
